# Test results from patent US20260206761A1, “HETEROARYL-TRIAZOLE COMPOUNDS AS PESTICIDES” (Bayer Aktiengesellschaft, priority 2019, published 2026).
# Legend:
# Type in all cases: in vivo
# [1] = tested on: fall armyworm larvae (Spodoptera frugiperda); assay: Spodoptera frugiperda spray test; conditions: 168 h, read-out: activity (mortality)
# Description: Spodoptera frugiperda—Spray Test
# Solvent: 78.0 parts by weight acetone • 1.5 parts by weight dimethylformamide
# (§1) Emulsifier: alkylarylpolyglycol ether
# (§2) To produce a suitable preparation of active compound, 1 part by weight of active compound is mixed with the stated amount of solvents and is diluted with water, containing an emulsifier concentration of 1000 ppm, to the desired concentration. Further test concentrations are prepared by dilution with emulsifier containing water.
# Maize (Zea mays) leaf sections are sprayed with a preparation of the active ingredient of the desired concentration. Once dry, the leaf sections are infested with fall armyworm larvae (Spodoptera frugiperda).
# After 7 days mortality in % is determined. 100% means all caterpillars have been killed and 0% means none of the caterpillars have been killed.
# [2] = tested on: larvae of the southern green stink bug (Nezara viridula); assay: Nezara viridula spray test; conditions: 96 h, after 4 days; for mortality at 500 g/ha: application rate 500 g/ha
# Description: Nezara viridula—Spray Test
# (§3) Solvent: 78.0 parts by weight of acetone • • 1.5 parts by weight of dimethylformamide
# as §1
# as §2, with “solvent,” for “solvents”, “and the concentrate” for “and”
# Barley plants (Hordeum vulgare) infested with larvae of the southern green stink bug (Nezara viridula) are sprayed with a test solution containing the desired concentration of the active ingredient.
# After 4 days mortality in % is determined. 100% means all the stink bugs have been killed; 0% means none of the stink bugs have been killed.
# [3] = tested on: Rhipicephalus microplus larvae (strain Parkhurst, resistant against synthetic pyrethroids); assay: Rhipicephalus (Boophilus) microplus in-vitro contact test, larval cattle tick; conditions: after 48 hours, read-out: activity (efficacy: larvae dead or moribund); for pest or weed control at 100 g/ha: application rate 1 pg/cm^2 (=100 g/ha); for pest or weed control at 500 g/ha: application rate 5 pg/cm^2 (=500 g/ha)
# Description: Rhipicephalus (Boophilus) microplus—In-Vitro Contact Tests Larval Cattle Tick (Strain Parkhurst. Resistant Against Synthetic Pyrethroids)
# (§4) 9 mg compound is solved in 1 mL acetone and diluted with acetone to the desired concentration. 250 μL of the test solution is filled in 25 mL glass test tubes and homogeneously distributed on the inner walls by rotation and tilting on a shaking device (2 h at 30 rpm). With a compound concentration of 900 ppm, an inner surface of 44.7 cm^2 and a homogeneous distribution, a dose of 5 μg/cm^2 is achieved.
# After the solvent has evaporated, each test tube is filled with 20-50 cattle tick larvae (Rhipicephalus microplus), closed with a perforated lid and incubated in a horizontal position at 85% relative humidity and 27° C. in an incubator. After 48 hours efficacy is determined. The larvae are patted on the ground of the tubes and negative geotactic behaviour is recorded.
# An efficacy of 100% means all larvae are dead or moribund; 0% means no larvae are dead or moribund.
# [4] = tested on: adult engorged female ticks (Rhipicephalus microplus); assay: Rhipicephalus (Boophilus) microplus injection test; conditions: 168 h, egg deposition after 7 days, read-out: activity (efficacy: infertile eggs); for pest or weed control at 4 pg: application rate 4 pg/animal; for pest or weed control at 0.02 mg: application rate 20 μg/animal
# Description: Rhipicephalus (Boophilus) microplus—Injection Test
# Solvent: dimethyl sulfoxide
# To produce a suitable preparation of active compound, 10 mg of active compound are dissolved in 0.5 mL solvent, and the concentrate is diluted with solvent to the desired concentration.
# Five adult engorged female ticks (Rhipicephalus microplus) are injected with 1 μL compound solution into the abdomen. The ticks are transferred into replica plates and incubated in a climate chamber.
# After 7 days egg deposition of fertile eggs is monitored. Eggs where fertility is not visible are stored in a climate chamber till hatching after about 42 days. An efficacy of 100% means all eggs are infertile; 0% means all eggs are fertile.
# [5] = tested on: larvae of the banded cucumber beetle (Diabrotica balteata); assay: Diabrotica balteata spray test; conditions: 168 h, after 7 days, read-out: activity (efficacy: seedlings grown); for pest or weed control at 100 g/ha: application rate 100 g/ha (=32 pg/well); for pest or weed control at 500 g/ha: application rate 500 g/ha (=160 pg/well)
# Description: Diabrotica balteata—spray test
# as §3, §1
# as §2, with “solvent,” for “solvents”, “and the concentrate” for “and”
# Soaked wheat seeds (Triticum aestivum) are placed in a multiple well plate filled with agar and some water and are incubated for 1 day to germinate (5 seeds per well). The germinated wheat seeds are sprayed with a test solution containing the desired concentration of the active ingredient. Afterwards each unit is infected with 10-20 larvae of the banded cucumber beetle (Diabrotica balteata).
# After 7 days efficacy in % is determined. 100% means all the seedlings have grown up like in the untreated, uninfected control; 0% means none of the seedlings have grown.
# [6] = tested on: green peach aphid (Myzus persicae); assay: Myzus persicae oral test; conditions: 120 h, application rate 4 ppm, after 5 days
# Description: Solvent: 100 parts by weight acetone
# To produce a suitable preparation of active compound, 1 part by weight of active compound is mixed with the stated amount of solvent, and the concentrate is diluted with water to the desired concentration.
# 50 μL compound solution is filled in microtiter plates and 150 μL IPL41 insect medium (33%+15% sugar) is added to obtain a total volume of 200 μL per well. Afterwards the plates are sealed with parafilm through which a mixed population of the green peach aphid (Myzus persicae) can suck on the compound preparation.
# After 5 days mortality in % is determined. 100% means all aphids have been killed and 0% means none of the aphids have been killed.
# [7] = tested on: adult brown dog ticks (Rhipicephalus sanguineus); assay: Rhipicephalus sanguineus in-vitro contact test, adult brown dog ticks; conditions: after 48 hours, read-out: activity (efficacy: ticks dead or moribund); for pest or weed control at 100 g/ha: application rate 1 pg/cm^2 (=100 g/ha); for pest or weed control at 5 µg/cm2, 500 g/ha: application rate 5 μg/cm^2 (=500 g/ha)
# Description: Rhipicephalus sanguineus—In-Vitro Contact Tests with Adult Brown Dog Ticks
# as §4
# After the solvent has evaporated, each test tube is filled with 5-10 adult brown dog ticks (Rhipicephalus sanguineus), closed with a perforated lid and incubated in a lying position at room temperature and relative humidity. After 48 hours efficacy is determined. The ticks are patted on the ground of the tubes and are incubated on a heating plate at 45-50° C. for at most 5 minutes. Immotile or uncoordinated moving ticks, which are not able to escape the heat by climbing upwards, are marked as dead or moribund.
# An efficacy of 100% means all ticks are dead or moribund; 0% means no ticks are dead or moribund.
Structure (SMILES),mortality at 100 g/ha [1],pest or weed control at 100 g/ha [3],pest or weed control at 500 g/ha [3],pest or weed control at 100 g/ha [5],also measured
COc1nc([C@H](C)NC(=O)c2cc(Cl)cc(S(=O)(=O)C3CC3)c2)n(-c2ccc(C#N)cn2)n1 [I-87],100%,,,,mortality at 500 g/ha [2]: 100%
C[C@H](NC(=O)c1cc(OC(F)(F)F)cc(C2CC2)c1)c1nc(C2CC2)nn1-c1ccc(C#N)cn1 [I-37],,100%,100%,100%,pest or weed control at 4 pg [4]: 100%
COc1nc([C@H](C)NC(=O)c2cc(Cl)cc(S(=O)(=O)C(F)(F)F)c2)n(-c2ccc(C#N)cn2)n1 [I-54],100%,100%,100%,,mortality at 4 ppm [6]: 100%
CC(NC(=O)c1cc(OC(F)(F)F)cc(C2CC2)c1)c1nc(Cl)nn1-c1ccc(C#N)cn1 (centres unmarked) [I-85],,90%,90%,100%,
COc1nc([C@H](C)NC(=O)c2cc(Br)cc(C3(F)CC3)c2)n(-c2ccc(C#N)cn2)n1 [I-71],100%,100%,100%,100%,mortality at 4 ppm [6]: 100%
CC(NC(=O)c1cc(Br)cc(C2(C(F)(F)F)CC2)c1)c1nc(Cl)nn1-c1ccc(C#N)cn1 (centres unmarked) [I-50],,80%,90%,,
Cc1nc([C@H](C)NC(=O)c2sccc2C(F)(F)F)n(-c2ccc(C#N)cn2)n1 [II-10],,,90%,,
CC(NC(=O)c1cc(C(F)(F)F)n(C)n1)c1nc(I)nn1-c1ncccn1 (centres unmarked) [I-42],,100%,100%,100%,
C[C@H](NC(=O)c1cc(C(F)F)cc(S(C)(=O)=O)c1)c1nc(C2CC2)nn1-c1ccc(Cl)cn1 [I-57],100%,100%,100%,100%,"pest or weed control at 100 g/ha [7]: 100%; pest or weed control at 5 µg/cm2, 500 g/ha [7]: 80%; mortality at 100 g/ha ([2]; application rate 100 g/ha): 100%; mortality at 500 g/ha [2]: 90%"
CCOc1nc([C@H](C)NC(=O)c2csc(Cl)c2)n(-c2ccc(C#N)cn2)n1 [I-10],,,,,pest or weed control at 0.02 mg [4]: 80%; pest or weed control at 500 g/ha [5]: 100%
COc1nc([C@H](C)NC(=O)c2cc(OC(F)(F)F)cc(S(=O)(=O)C3CC3)c2)n(-c2ccc(C#N)cn2)n1 [I-92],100%,,,,mortality at 500 g/ha [2]: 90%
CC(C)S(=O)(=O)c1cc(Cl)cc(C(=O)N[C@@H](C)c2nc(C3CC3)nn2-c2ccc(C#N)cn2)c1 [I-14],,100%,100%,,"pest or weed control at 100 g/ha [7]: 80%; pest or weed control at 5 µg/cm2, 500 g/ha [7]: 80%; pest or weed control at 4 pg [4]: 100%; pest or weed control at 0.02 mg [4]: 100%"
C[C@H](NC(=O)c1cc(C2CC2)cc(S(C)(=O)=O)c1)c1nc(C2CC2)nn1-c1ccc(C#N)cn1 [I-49],100%,100%,100%,,mortality at 4 ppm [6]: 100%
C[C@H](NC(=O)c1cc(Cl)cc(S(=O)(=O)C(F)(F)F)c1)c1nc(C2CC2)nn1-c1ccc(C#N)cn1 [I-40],100%,100%,100%,100%,pest or weed control at 4 pg [4]: 100%
COc1nc([C@H](C)NC(=O)c2cc(Br)cc(C3CC3(F)F)c2)n(-c2ccc(C#N)cn2)n1 (some centres unmarked) [I-72],100%,100%,90%,,mortality at 500 g/ha [2]: 90%
COc1nc([C@H](C)NC(=O)c2cc(F)cc(S(C)(=O)=O)c2)n(-c2ccc(C#N)cn2)n1 [I-73],100%,,,100%,
COc1nc([C@H](C)NC(=O)c2cc(C(F)F)cc(S(C)(=O)=O)c2)n(-c2ccc(C#N)cn2)n1 [I-89],100%,,,,mortality at 500 g/ha [2]: 100%
CC(C)Oc1nc([C@H](C)NC(=O)c2csc(Cl)c2)n(-c2ccc(C#N)cn2)n1 [I-12],,,,,pest or weed control at 0.02 mg [4]: 80%
COc1nc([C@H](C)NC(=O)c2cc(OC(F)(F)F)cc(C3CC3)c2)n(-c2ccc(Cl)cn2)n1 [I-46],,,,100%,
C[C@H](NC(=O)c1cc(OC(F)F)cc(S(=O)(=O)C2CC2)c1)c1nc(C2CC2)nn1-c1ccc(C#N)cn1 [I-86],100%,,,100%,mortality at 500 g/ha [2]: 100%
COc1nc([C@H](C)NC(=O)c2cc(Cl)cc(S(C)(=O)=O)c2)n(-c2ncc(Cl)cn2)n1 [I-78],100%,,,100%,
COc1nc([C@H](C)NC(=O)c2cc(Cl)cc(S(=O)(=O)C(F)F)c2)n(-c2ccc(Cl)cn2)n1 [I-53],100%,,,100%,mortality at 4 ppm [6]: 100%
C[C@H](NC(=O)c1cc(C(F)(F)F)cc(S(C)(=O)=O)c1)c1nc(C2CC2)nn1-c1ccc(Cl)cn1 [I-68],100%,,,100%,mortality at 4 ppm [6]: 100%
C[C@H](NC(=O)c1cc(OC(F)(F)F)cc(S(=O)(=O)C2CC2)c1)c1nc(C2CC2)nn1-c1ccc(C#N)cn1 [I-90],100%,,,100%,mortality at 500 g/ha [2]: 100%
CC(C)Oc1nc([C@H](C)NC(=O)c2cc(Cl)cc(S(C)(=O)=O)c2)n(-c2ccc(C#N)cn2)n1 [I-11],100%,90%,80%,,mortality at 500 g/ha [1]: 83%; pest or weed control at 4 pg [4]: 100%; pest or weed control at 0.02 mg [4]: 100%; pest or weed control at 500 g/ha [5]: 80%
C[C@H](NC(=O)c1cc(Br)cc(C(C)(C)C)c1)c1nncn1-c1ccc(C#N)cn1 [II-2],,,,,mortality at 500 g/ha [1]: 100%; pest or weed control at 4 pg [4]: 100%; pest or weed control at 0.02 mg [4]: 100%; pest or weed control at 500 g/ha [5]: 100%
COc1nc([C@H](C)NC(=O)c2cc(Cl)cc(S(=O)(=O)C3CC3)c2)n(-c2ccc(Cl)cn2)n1 [I-62],100%,,,100%,mortality at 4 ppm [6]: 100%
